The numbers were not newly measured in PMC6311893, “Computational prediction of plasma protein binding of cyclic peptides from small molecule experimental data using sparse modeling techniques” (BMC Bioinformatics, 2018), which cites them from elsewhere.

Like-named read-outs stand apart in the source and are kept apart here.

The data set deals with plasma protein. The conditions noted are these: cited from earlier work.
[1] abbreviates: fraction bound to plasma protein, small molecule dataset, sheet 1-SM, ref Ingle et al.
The mark [2] stands for this setting: fraction bound to plasma protein, small molecule dataset, sheet 1-SM, Set Dtr, ref Ingle et al.
[3] abbreviates: fraction bound to plasma protein, small molecule dataset, sheet 1-SM (Set Dte = test, Dtr = training), ref Ingle et al.

In the case of `CO[C@]1(CC[C@@H](C)CO[C@@H]2O[C@H](CO)[C@@H](O)[C@H](O)[C@H]2O)O[C@H]2C[C@H]3[C@@H]4CC=C5C[C@@H](O[C@@H]6O[C@H](CO)[C@@H](O[C@@H]7O[C@@H](C)[C@H](O)[C@@H](O)[C@H]7O)[C@H](O)[C@H]6O[C@@H]6O[C@@H](C)[C@H](O)[C@@H](O)[C@H]6O)CC[C@]5(C)[C@H]4CC[C@]3(C)[C@H]2[C@@H]1C` [methyl protodioscin], the “PPB (fb)” value under setting [1] was 0.84.
Consider `COc1ccccc1N1CCN(CCCNc2cc(=O)n(C)c(=O)n2C)CC1` [urapidil], for which the “PPB (fb)” value under setting [2] was 0.8.
Turning to `C[C@H](N[C@@H](CCc1ccccc1)C(=O)O)C(=O)N1Cc2ccccc2C[C@H]1C(=O)O` [Quinaprilat], under setting [3], the “PPB (fb)” value was 0.68.
As to `NC(C(=O)NC1C(=O)N2C(C(=O)O)=C(Cl)CCC12)c1ccccc1` (stereo not drawn) [loracarbef], the “PPB (fb)” value under setting [3] is listed as 0.25.
With `[H]/N=C(\N/C(=N/[H])Nc1ccc(Cl)cc1)NC(C)C` [chlorguanide], the “PPB (fb)” value under setting [3] is recorded as 0.85.
As for `CCCC(C)(COC(N)=O)COC(=O)NC(C)C` (stereo not drawn) [carisoprodol], the “PPB (fb)” value (plasma) is given as 0.58.
Take `Nc1nc(O)c2ncn(COC(CO)CO)c2n1` [Ganciclovir]: the “PPB (fb)” value under setting [2] was 0.01.
Regarding `COc1ccc2ccccc2c1C(=O)NC1C(=O)N2C1SC(C)(C)C2C(=O)O` (stereo not drawn) [penicillin67], under setting [1], the “PPB (fb)” value is recorded as 0.8.
As for `CC(=O)OC1CC(OC2C(O)CC(OC3C(O)CC(OC4CCC5(C)C(CCC6C5CCC5(C)C(C7=CC(=O)OC7)CCC65O)C4)OC3C)OC2C)OC(C)C1O` (stereo not drawn) [acetyldigitoxin], the “PPB (fb)” value (plasma) is 0.8.
Regarding `CN1C2CCCC1CC(NC(=O)c1nn(C)c3ccccc13)C2` (stereo not drawn) [Granisetron], the “PPB (fb)” value under setting [2] was 0.65.
In the case of Nisoldipine, the “PPB (fb)” value (plasma) is recorded as 1.
`CC1(C)SC2C(NC(=O)c3ccccc3)C(=O)N2C1C(=O)O` (stereo not drawn) [penicillin14]: the “PPB (fb)” value under setting [1] is on record as 0.87.
Regarding `CC(C)(C)NC(=O)[C@@H]1C[C@@H]2CCCC[C@@H]2CN1C[C@@H](O)[C@H](Cc1ccccc1)NC(=O)[C@H](CC(N)=O)NC(=O)c1ccc2ccccc2n1` [Saquinavir], the “PPB (fb)” value under setting [1] is on record as 0.98.
Regarding `O=C1CCc2ccc(OCCCCN3CCN(c4cccc(Cl)c4Cl)CC3)cc2N1` [Aripiprazole], under setting [2], the “PPB (fb)” value is 0.99.
Turning to `CC(C)(S)[C@@H](N)C(=O)O` [penicillamine], the “PPB (fb)” value under setting [1] was 0.8.
`CCCNC(C)C(=O)Nc1ccccc1C` (stereo not drawn) [Prilocaine]: the “PPB (fb)” value under setting [2] was 0.39.
In the case of `CC(Cc1ccc(O)cc1)NCC(O)c1cc(O)cc(O)c1` (stereo not drawn) [Fenoterol], the “PPB (fb)” value (plasma) is listed as 0.47.
With `CC(CN1c2ccccc2Sc2ccccc21)N(C)C` (stereo not drawn) [Promethazine], the “PPB (fb)” value under setting [2] is 0.88.
For `CC(=O)O[C@H]1C(=O)[C@@]2(C)[C@H]([C@H](OC(=O)c3ccccc3)[C@]3(O)C[C@H](OC(=O)[C@H](O)[C@@H](NC(=O)c4ccccc4)c4ccccc4)C(C)=C1C3(C)C)[C@]1(OC(C)=O)CO[C@@H]1C[C@@H]2O` [Paclitaxel], the “PPB (fb)” value under setting [2] is given as 0.76.
`O=C(O)CN1C(=O)[C@@H](N[C@@H](CCc2ccccc2)C(=O)O)CCc2ccccc21` [Benazeprilat]: the “PPB (fb)” value under setting [3] is given as 0.95.
For `C=CC1=C(C(=O)O)N2C(=O)[C@@H](NC(=O)/C(=N\O)c3csc(N)n3)[C@H]2SC1` [cefdinir], the “PPB (fb)” value under setting [3] was 0.65.
Take `CCc1ccc(CCOc2ccc(CC3SC(=O)NC3=O)cc2)nc1` (stereo not drawn) [pioglitazone]: the “PPB (fb)” value under setting [1] is given as 0.99.
For `CC[C@H]1OC(=O)[C@H](C)C(=O)[C@H](C)[C@@H](O[C@@H]2O[C@H](C)C[C@H](N(C)C)[C@H]2O)[C@](C)(OC)C[C@@H](C)C(=O)[C@H](C)[C@H]2N(CCCCn3cnc(-c4cccnc4)c3)C(=O)O[C@]12C` [Telithromycin], the “PPB (fb)” value under setting [1] is listed as 0.59.
For the molecule `O=C(N[C@H](CO)[C@H](O)c1ccc([N+](=O)[O-])cc1)C(Cl)Cl` [Chloramphenicol], under setting [2], the “PPB (fb)” value was 0.61.
With `CNCCCC12CCC(c3ccccc31)c1ccccc12` [Maprotiline], under setting [3], the “PPB (fb)” value is 0.89.
For the molecule `O=C(O)COc1ccc(C(=O)c2cccs2)c(Cl)c1Cl` [tienilic acid], the “PPB (fb)” value under setting [1] is 0.99.
Regarding `NC[C@H]1O[C@H](O[C@H]2[C@H](O)[C@@H](O[C@H]3O[C@H](CO)[C@@H](O)[C@H](N)[C@H]3O)[C@H](N)C[C@@H]2N)[C@H](N)C[C@@H]1O` [Tobramycin], the “PPB (fb)” value under setting [3] was 0.05.
As to `Cc1ncc2n1-c1ccc(Cl)cc1C(c1ccccc1F)=NC2` [Midazolam], for the setting “plasma”, the “PPB (fb)” value is on record as 0.97.
Turning to `Clc1ccc2c(c1)C(N1CCNCC1)=Nc1ccccc1O2` [amoxapine], the “PPB (fb)” value under setting [3] is reported as 0.9.
Turning to `COc1ccc(C(=O)Nc2ccccc2CCC2CCCCN2C)cc1` (stereo not drawn) [Encainide], under setting [2], the “PPB (fb)” value is on record as 0.72.
On to `CCOC(=O)[C@H](CCc1ccccc1)N[C@H]1CCc2ccccc2N(CC(=O)O)C1=O` [benazepril], for which the “PPB (fb)” value under setting [3] is 0.96.
`C[C@@H](O)[C@H]1C(=O)N2C(C(=O)O)=C(SCCOC(N)=O)S[C@H]12` [Sch34343]: the “PPB (fb)” value under setting [1] was 0.65.
Regarding `CC(C(=O)NC1C(=O)N2C1SC(C)(C)C2C(=O)O)c1ccccc1` (stereo not drawn) [penicillin19], the “PPB (fb)” value under setting [1] is 0.68.
On to `Clc1ccccc1C(c1ccccc1)(c1ccccc1)n1ccnc1` [clotrimazole], for which, under setting [3], the “PPB (fb)” value is given as 0.5.
Take `CN1C(C(=O)Nc2ccccn2)=C(O)c2sccc2S1(=O)=O` [Tenoxicam]: the “PPB (fb)” value under setting [3] is 0.99.
As to `COc1ccc([C@]2(C#N)CC[C@@H](C(=O)O)CC2)cc1OC1CCCC1` [Cilomilast], under setting [2], the “PPB (fb)” value is recorded as 0.99.
On to `C#CC1(O)CC[C@H]2[C@@H]3CCC4=CC(=O)CC[C@@H]4[C@H]3CC[C@@]21CC` (stereo partly drawn) [norgestrel], for which the “PPB (fb)” value under setting [3] is on record as 0.97.
For the molecule `CC(C)(C#N)c1cc(Cn2cncn2)cc(C(C)(C)C#N)c1` [anastrozole], the “PPB (fb)” value under setting [3] was 0.44.
Regarding `CCC(C)C1(CC)C(=O)NC(=O)NC1=O` (stereo not drawn) [secbutabarbital], the “PPB (fb)” value (plasma) is on record as 0.26.
Consider `NS(=O)(=O)c1cc(-c2nnn[nH]2)c(NCc2cccs2)cc1Cl` [azosemide], for which the “PPB (fb)” value under setting [3] is recorded as 0.96.
`CCCCCCCC(=O)NC1C(=O)N2C1SC(C)(C)C2C(=O)O` (stereo not drawn) [penicillin3]: the “PPB (fb)” value (plasma) is given as 0.92.
Regarding `CSc1ccc2c(c1)N(CCC1CCCCN1C)c1ccccc1S2` (stereo not drawn) [thioridazine], under setting [1], the “PPB (fb)” value is recorded as 0.98.
Consider `CO/N=C(\C(=O)N[C@@H]1C(=O)N2C(C(=O)O)=C(C)CS[C@H]12)c1csc(N)n1` [Cefetamet], for which the “PPB (fb)” value under setting [2] was 0.22.
Regarding `CC[C@@H]1C(=O)OC[C@@H]1Cc1cncn1C` [Pilocarpine], the “PPB (fb)” value under setting [1] is given as 0.01.
Turning to `C[C@]1(Cn2ccnn2)[C@H](C(=O)O)N2C(=O)C[C@H]2S1(=O)=O` [tazobactam], the “PPB (fb)” value under setting [1] was 0.23.
Consider `O=C1Cc2cc(CCN3CCN(c4nsc5ccccc45)CC3)c(Cl)cc2N1` [Ziprasidone], for which the “PPB (fb)” value under setting [1] is on record as 0.99.
In the case of `O=P(O)(O)C(Sc1ccc(Cl)cc1)P(=O)(O)O` [tiludronic acid], the “PPB (fb)” value under setting [1] is listed as 0.9.
In the case of `CCOC(=O)[C@H](CCc1ccccc1)N[C@@H](C)C(=O)N1CCC[C@H]1C(=O)O` [enalapril], under setting [1], the “PPB (fb)” value is on record as 0.55.
For `CC(Oc1ccccc1Cl)C(=O)NC1C(=O)N2C1SC(C)(C)C2C(=O)O` (stereo not drawn) [penicillin55], under setting [1], the “PPB (fb)” value is listed as 0.96.
Turning to `CC(C)NCC(O)COc1ccc(CCOCC2CC2)cc1` (stereo not drawn) [Betaxolol], the “PPB (fb)” value under setting [2] was 0.56.
mepacrine: the “PPB (fb)” value (plasma) is 0.9.
